This is an account of results in PubChem BioAssay AID272 (DTP/NCI, 2004).

Values joined by “and” are separate entries in the source; they are usually repeats but may differ in a detail not shown here. Equal entries are not always repeated. Inconclusive results are not listed.

In this test the test system is Lewis lung carcinoma i.m., BDF1 mice, T/C %. Nature of the test: NCI In Vivo Anticancer Drug Screen. Data for tumor model Lewis Lung Carcinoma (intramuscular) in B6D2F1 (BDF1) mice. A digest of the protocol:
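Value is the ratio of a treated-group measurement (T) to the matching vehicle-control measurement (C), using either survival or tumour size in mice bearing transplanted tumours.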

The mark [1] stands for this setting: endpoint: mean tumor weight (est.), dose: 0.25 mg/kg/injection, schedule: Q01DX011 (ip), vehicle: saline, higher = larger tumour.
The mark [2] stands for this setting: endpoint: mean tumor weight (est.), dose: 0.5 mg/kg/injection, schedule: Q01DX011 (ip), vehicle: saline, higher = larger tumour.
Where [3] appears, read: endpoint: median survival time, dose: 0.25 mg/kg/injection, schedule: Q01DX011 (ip), vehicle: saline, higher = longer survival.
The mark [4] stands for this setting: endpoint: mean tumor weight (est.), dose: 1.25 mg/kg/injection, schedule: Q01DX011 (ip), vehicle: saline, higher = larger tumour.
Where [5] appears, read: endpoint: mean tumor weight (est.), dose: 2.5 mg/kg/injection, schedule: Q01DX011 (ip), vehicle: saline, higher = larger tumour.

Consider `Nc1nc(Cl)nc2c1ncn2C1CC(O)C(CO)O1` (configuration not stated), for which the T/C is, setting by setting: (endpoint: median survival time, dose: 8.0 mg/kg/injection, schedule: Q01DX Z (ip), vehicle: other, higher = longer survival) 93 % of control and 95 % of control; (endpoint: median survival time, dose: 16.0 mg/kg/injection, schedule: Q01DX Z (ip), vehicle: other, higher = longer survival) 113 % of control; (endpoint: median survival time, dose: 32.0 mg/kg/injection, schedule: Q01DX Z (ip), vehicle: other, higher = longer survival) 86 % of control.
Turning to `COC(=O)C[C@](O)(CCCC(C)(C)O)C(=O)O[C@@H]1C(OC)=C[C@]23CCCN2CCc2cc4c(cc2[C@H]13)OCO4`, the T/C under setting [1] is 60 % of control, the T/C under setting [2] was 57 % of control and the T/C under setting [3] was 93 % of control.
As for `CN=C1N[N+]2=CCCCC2S1` (configuration not stated), the T/C is 99 % of control (endpoint: median survival time, dose: 40.0 mg/kg/injection, schedule: Q02DX011 (ip), vehicle: saline with Tween-80, higher = longer survival); 86 % of control (endpoint: median survival time, dose: 60.0 mg/kg/injection, schedule: Q02DX011 (ip), vehicle: saline with Tween-80, higher = longer survival); 93 % of control (endpoint: median survival time, dose: 80.0 mg/kg/injection, schedule: Q02DX011 (ip), vehicle: saline with Tween-80, higher = longer survival).
`COc1cc([C@@H]2c3cc4c(c(O)c3C[C@H]3COC(=O)[C@@H]32)OCO4)cc(OC)c1O`: the T/C is, setting by setting: (endpoint: mean tumor weight (est.), dose: 0.12 mg/kg/injection, schedule: Q01DX011 (ip), vehicle: saline, higher = larger tumour) 99 % of control; under setting [1], 94 % of control; under setting [2], 66 % of control.
On to `CS(=O)(=O)OCCCNCCCOS(C)(=O)=O`, for which the T/C is 110 % of control and 113 % of control and 119 % of control (endpoint: median survival time, dose: 10.0 mg/kg/injection, schedule: Q01DX011 (ip), vehicle: saline, higher = longer survival); 109 % of control (endpoint: median survival time, dose: 20.0 mg/kg/injection, schedule: Q01DX011 (ip), vehicle: saline, higher = longer survival); 92 % of control and 107 % of control (endpoint: median survival time, dose: 40.0 mg/kg/injection, schedule: Q01DX011 (ip), vehicle: saline, higher = longer survival).
Consider `Cc1ccc2c(C)c3c(ccc4ccccc43)c[n+]2c1`, for which the T/C by setting is: under setting [4], 87 % of control; under setting [5], 96 % of control; (endpoint: mean tumor weight (est.), dose: 5.0 mg/kg/injection, schedule: Q01DX011 (ip), vehicle: saline, higher = larger tumour) 72 % of control; (endpoint: median survival time, dose: 1.25 mg/kg/injection, schedule: Q01DX011 (ip), vehicle: saline, higher = longer survival) 106 % of control; (endpoint: median survival time, dose: 2.5 mg/kg/injection, schedule: Q01DX011 (ip), vehicle: saline, higher = longer survival) 110 % of control; (endpoint: median survival time, dose: 5.0 mg/kg/injection, schedule: Q01DX011 (ip), vehicle: saline, higher = longer survival) 100 % of control.
Consider `COc1ccc(C(=O)/C(Br)=C/C(=O)O)cc1`, for which, under “endpoint: mean tumor weight, dose: 40.0 mg/kg/injection, schedule: Q01DX011 (ip), vehicle: saline, higher = larger tumour”, the T/C is 48 % of control.
For the compound `NC1CONC1=O` (configuration not stated), the T/C (endpoint: mean tumor weight (est.), dose: 50.0 mg/kg/injection, schedule: Q01DX011 (ip), vehicle: saline, higher = larger tumour) was 95 % of control; the T/C (endpoint: mean tumor weight (est.), dose: 100.0 mg/kg/injection, schedule: Q01DX011 (ip), vehicle: saline, higher = larger tumour) was 93 % of control; the T/C (endpoint: mean tumor weight (est.), dose: 200.0 mg/kg/injection, schedule: Q01DX011 (ip), vehicle: saline, higher = larger tumour) was 84 % of control; the T/C (endpoint: mean tumor weight (est.), dose: 400.0 mg/kg/injection, schedule: Q01DX011 (ip), vehicle: saline, higher = larger tumour) was 76 % of control; the T/C (endpoint: median survival time, dose: 50.0 mg/kg/injection, schedule: Q01DX011 (ip), vehicle: saline, higher = longer survival) is 94 % of control; the T/C (endpoint: median survival time, dose: 100.0 mg/kg/injection, schedule: Q01DX011 (ip), vehicle: saline, higher = longer survival) is 106 % of control. For the same compound, the T/C is, setting by setting: (endpoint: median survival time, dose: 200.0 mg/kg/injection, schedule: Q01DX011 (ip), vehicle: saline, higher = longer survival) 106 % of control; (endpoint: median survival time, dose: 400.0 mg/kg/injection, schedule: Q01DX011 (ip), vehicle: saline, higher = longer survival) 124 % of control.
Regarding `CCOC(=O)C(CS)NC(=O)CCNC(C)=O` (configuration not stated), the T/C is 109 % of control (endpoint: median survival time, dose: 4.0 mg/kg/injection, schedule: Q01DX009 (ip), vehicle: water, higher = longer survival); 119 % of control (endpoint: median survival time, dose: 8.0 mg/kg/injection, schedule: Q01DX009 (ip), vehicle: water, higher = longer survival); 113 % of control (endpoint: median survival time, dose: 32.0 mg/kg/injection, schedule: Q01DX009 (ip), vehicle: water, higher = longer survival); 124 % of control (endpoint: median survival time, dose: 64.0 mg/kg/injection, schedule: Q01DX009 (ip), vehicle: water, higher = longer survival).
Regarding `COc1cccc2c1C(=O)c1c(O)c3c(c(O)c1C2=O)C[C@@](O)(C(C)=O)C[C@@H]3OC1CC(N)C(O)C(C)O1` (some centres not stated), the T/C runs as follows: (endpoint: median survival time, dose: 0.25 mg/kg/injection, schedule: Q01DX011 (ip), vehicle: water, higher = longer survival) 93 % of control; (endpoint: median survival time, dose: 0.5 mg/kg/injection, schedule: Q01DX011 (ip), vehicle: water, higher = longer survival) 106 % of control and 117 % of control; (endpoint: median survival time, dose: 1.0 mg/kg/injection, schedule: Q01DX011 (ip), vehicle: water, higher = longer survival) 107 % of control.
Consider `O=C(Nc1ccc(C2=NCCN2)cc1)c1ccc(C(=O)Nc2ccc(C3=NCCN3)cc2)c(Cl)c1`, for which the T/C (endpoint: median survival time, dose: 4.0 mg/kg/injection, schedule: Q01DX011 (ip), vehicle: water, higher = longer survival) is 90 % of control.
`CCCSc1ncnc2nc[nH]c12`: the T/C was 80 % of control (endpoint: mean tumor weight, dose: 25.0 mg/kg/injection, schedule: Q01DX011 (ip), vehicle: other, higher = larger tumour) and 102 % of control (endpoint: median survival time, dose: 25.0 mg/kg/injection, schedule: Q01DX011 (ip), vehicle: other, higher = longer survival).
For the compound `Nc1n[nH]c(N)n1`, the T/C runs as follows: (endpoint: mean tumor weight, dose: 125.0 mg/kg/injection, schedule: Q03HX024 (ip), vehicle: water, higher = larger tumour) 89 % of control; (endpoint: mean tumor weight, dose: 250.0 mg/kg/injection, schedule: Q03HX024 (ip), vehicle: water, higher = larger tumour) 81 % of control; (endpoint: mean tumor weight, dose: 750.0 mg/kg/injection, schedule: Q01DX009 (ip), vehicle: water, higher = larger tumour) 72 % of control; (endpoint: mean tumor weight, dose: 750.0 mg/kg/injection, schedule: Q01DX011 (ip), vehicle: water, higher = larger tumour) 68 % of control; (endpoint: median survival time, dose: 375.0 mg/kg/injection, schedule: Q01DX009 (ip), vehicle: water, higher = longer survival) 116 % of control; (endpoint: median survival time, dose: 375.0 mg/kg/injection, schedule: Q01DX011 (ip), vehicle: water, higher = longer survival) 110 % of control. For the same compound, the T/C is 124 % of control (endpoint: median survival time, dose: 750.0 mg/kg/injection, schedule: Q01DX009 (ip), vehicle: water, higher = longer survival); 104 % of control (endpoint: median survival time, dose: 750.0 mg/kg/injection, schedule: Q01DX011 (ip), vehicle: water, higher = longer survival); 124 % of control (endpoint: median survival time, dose: 1500.0 mg/kg/injection, schedule: Q01DX011 (ip), vehicle: water, higher = longer survival).
As for `Cc1ccc2c(ccc(C)[n+]2C)c1`, the T/C is 86 % of control (endpoint: mean tumor weight (est.), dose: 37.5 mg/kg/injection, schedule: Q01DX011 (ip), vehicle: saline, higher = larger tumour) and 86 % of control (endpoint: mean tumor weight (est.), dose: 75.0 mg/kg/injection, schedule: Q01DX011 (ip), vehicle: saline, higher = larger tumour).
Take `C=CCN1/C(=C/C=C\c2sc3ccccc3[n+]2CC=C)Sc2ccccc21`: the T/C reads like this: (endpoint: mean tumor weight (est.), dose: 0.07 mg/kg/injection, schedule: Q01DX011 (ip), vehicle: saline, higher = larger tumour) 89 % of control; (endpoint: mean tumor weight (est.), dose: 0.13 mg/kg/injection, schedule: Q01DX011 (ip), vehicle: saline, higher = larger tumour) 87 % of control; under setting [1], 117 % of control; under setting [2], 93 % of control; (endpoint: mean tumor weight (est.), dose: 1.0 mg/kg/injection, schedule: Q01DX011 (ip), vehicle: saline, higher = larger tumour) 113 % of control; (endpoint: median survival time, dose: 0.06 mg/kg/injection, schedule: Q01DX011 (ip), vehicle: saline, higher = longer survival) 93 % of control. For the same compound, the T/C is, setting by setting: (endpoint: median survival time, dose: 0.13 mg/kg/injection, schedule: Q01DX011 (ip), vehicle: saline, higher = longer survival) 86 % of control; under setting [3], 87 % of control; (endpoint: median survival time, dose: 0.5 mg/kg/injection, schedule: Q01DX011 (ip), vehicle: saline, higher = longer survival) 89 % of control.
Turning to `Cc1cc2c3ccc(C)[n+](C)c3ccc2n1C`, the T/C (endpoint: mean tumor weight (est.), dose: 0.6 mg/kg/injection, schedule: Q01DX011 (ip), vehicle: saline, higher = larger tumour) was 81 % of control; the T/C under setting [4] is 59 % of control; the T/C under setting [5] is 110 % of control.
Consider `CCCCCCCCCCCCCCCC[N+](C)(C)c1nc(Cl)nc(Cl)n1`, for which the T/C is 92 % of control (endpoint: mean tumor weight (est.), dose: 7.5 mg/kg/injection, schedule: Q01DX011 (ip), vehicle: saline, higher = larger tumour); 65 % of control (endpoint: mean tumor weight (est.), dose: 15.0 mg/kg/injection, schedule: Q01DX011 (ip), vehicle: saline, higher = larger tumour); 106 % of control (endpoint: median survival time, dose: 7.5 mg/kg/injection, schedule: Q01DX011 (ip), vehicle: saline, higher = longer survival); 112 % of control (endpoint: median survival time, dose: 15.0 mg/kg/injection, schedule: Q01DX011 (ip), vehicle: saline, higher = longer survival).
